pEC50: −log10 of the molar value.

The test has as its target T1, ADAR1 (Homo sapiens, UniProt P55265).
T1 construct: endogenous in cells; host or cells: p110 KO A549 dual cells
T1 sequence (P55265 1-1226): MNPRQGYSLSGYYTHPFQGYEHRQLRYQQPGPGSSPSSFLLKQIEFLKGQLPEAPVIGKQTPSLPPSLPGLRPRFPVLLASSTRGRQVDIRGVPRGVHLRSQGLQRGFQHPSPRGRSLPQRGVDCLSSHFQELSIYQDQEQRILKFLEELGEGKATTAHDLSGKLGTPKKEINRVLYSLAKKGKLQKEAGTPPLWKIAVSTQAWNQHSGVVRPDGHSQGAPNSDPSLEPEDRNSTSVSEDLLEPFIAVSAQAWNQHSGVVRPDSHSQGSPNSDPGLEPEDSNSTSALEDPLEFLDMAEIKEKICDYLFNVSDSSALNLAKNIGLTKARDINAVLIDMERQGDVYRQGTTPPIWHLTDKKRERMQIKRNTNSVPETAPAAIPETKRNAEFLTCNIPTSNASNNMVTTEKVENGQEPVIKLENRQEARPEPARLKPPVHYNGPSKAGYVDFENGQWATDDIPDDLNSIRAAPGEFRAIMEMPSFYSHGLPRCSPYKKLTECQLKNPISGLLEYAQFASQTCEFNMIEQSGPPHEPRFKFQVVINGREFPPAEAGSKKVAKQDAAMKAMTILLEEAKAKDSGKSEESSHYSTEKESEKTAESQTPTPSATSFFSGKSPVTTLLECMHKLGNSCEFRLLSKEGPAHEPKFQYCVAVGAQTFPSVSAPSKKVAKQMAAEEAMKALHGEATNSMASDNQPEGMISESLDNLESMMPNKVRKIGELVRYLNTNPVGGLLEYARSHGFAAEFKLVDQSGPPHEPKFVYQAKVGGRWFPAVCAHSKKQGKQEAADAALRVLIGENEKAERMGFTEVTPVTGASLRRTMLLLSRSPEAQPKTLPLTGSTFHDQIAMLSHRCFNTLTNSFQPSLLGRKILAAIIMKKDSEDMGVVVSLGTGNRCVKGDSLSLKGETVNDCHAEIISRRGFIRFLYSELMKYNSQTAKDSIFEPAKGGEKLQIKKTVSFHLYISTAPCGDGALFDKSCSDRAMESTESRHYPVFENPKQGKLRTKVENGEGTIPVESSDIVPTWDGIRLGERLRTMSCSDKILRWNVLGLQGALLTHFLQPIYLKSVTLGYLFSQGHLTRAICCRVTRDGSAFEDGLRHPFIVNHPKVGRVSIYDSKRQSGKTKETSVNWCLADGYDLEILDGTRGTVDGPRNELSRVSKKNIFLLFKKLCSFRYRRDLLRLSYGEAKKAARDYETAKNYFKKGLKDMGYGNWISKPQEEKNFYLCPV
Description: ADAR1 Inhibition Assay (IFN fold-induction, Quanti-Luc luminescence, p110 KO A549 dual cells). Type of test: cell-based. As to conditions: IFN fold-induction vs DMSO, 24 and 48 h. The method, then: An ADAR1 Inhibition Assay was used to determine the biological activity (EC50) of compounds disclosed herein. 100 μL of p110 KO A549 dual cell suspension in supplemented DMEM (20,000 cells per well) was added into a flat bottom 96 well plate. Next day, post media change, 180 μL of supplemented DMEM was added. 20 μL of test compound or positive control was added to the respective wells (Final concentration of DMSO is 1%). The plate was incubated for 24 and 48 hours at 37° C. in a 5% CO2 incubator. After 24 and 48 h, 20 μL of cell suspension was taken in black well plates and 50 μL of Quanti-Luc was added to each well and luminescence was measured using a microplate reader (Spectra Max). IFN fold-induction was plotted considering DMSO as control using the relative luminescence unit (RLU) values. (Fold induction: Sample RLU/Average DMSO RLU).
As for `CCOC(=O)c1c(NC(=O)COC(=O)c2cccc(NS(C)(=O)=O)c2)sc(-c2ccccc2)c1C(=O)OCC` [Compound 251], the pEC50 was below 4.00.
For `CCOC(=O)c1cc(-c2ccccc2)sc1NC(=O)c1cccc(S(N)(=O)=O)c1` [Compound 10] the value was below 4.00.
For `CCOC(=O)c1cc(-c2cccc(C#N)c2)sc1NC(=O)COC(=O)c1cccc(NS(C)(=O)=O)c1` [Compound 212] the value was below 4.00; for `CCOC(=O)c1cc(-c2ccccc2)sc1NC(=O)c1nn(-c2cccc(NS(C)(=O)=O)c2)c(=O)cc1C` [Compound 273], below 4.00.
`CS(=O)(=O)Nc1cccc(NC(=O)c2cc(-c3ccccc3)sc2N)c1` [Compound 269]: the pEC50 is below 4.00.
For `CCOC(=O)c1cc(-c2ccc(C(F)(F)F)cc2)sc1NC(=O)COC(=O)c1cccc(NS(C)(=O)=O)c1` [Compound 106] the value was below 4.00; for `CCOC(=O)c1cc(-c2ccccc2)ncc1NC(=O)COC(=O)c1cccc(P(=O)(O)O)c1` [Compound 382], below 4.00.
As for `CCOC(=O)c1nc(-c2ccccc2)[nH]c1NC(=O)COC(=O)c1cccc(NS(C)(=O)=O)c1` [Compound 141], the figure is below 4.00; as for `CCOC(=O)c1cc(-c2ccccc2)sc1NC(=O)COC(=O)Nc1cccc(NS(C)(=O)=O)c1` [Compound 166], below 4.00.
For the compound `CCOC(=O)c1cc(NC(=O)COC(=O)c2cccc(NS(C)(=O)=O)c2)sc1-c1ccccc1` [Compound 247], the pEC50 is below 4.00.
For `CCOC(=O)c1cc(-c2ccccc2)ncc1NC(=O)COC(=O)c1cccc(P(=O)(OCC)OCC)c1` [Compound 381] the value was below 4.00.
For `CCOC(=O)c1cc(-c2ccccc2)sc1NC(=O)CNC(=O)c1cccc(S(=O)(=O)N2CCCC2)c1` [Compound 29] the value was below 4.00; for `CCOC(=O)c1cc(-c2ccccc2)sc1NC(=O)CN1C(=O)CN(C(=O)c2cccc(NS(C)(=O)=O)c2)C1=O` [Compound 238], below 4.00; for `CCOC(=O)c1cc(-c2ccccc2)sc1NC(=O)C(C)(C)Nc1cccc(NS(C)(=O)=O)c1` [Compound 231], below 4.00.
The compound `CCOC(=O)c1cc(-c2ccccc2)sc1NC(=O)COC(=O)c1cccc(NS(=O)(=O)C(F)(F)F)c1` [Compound 257] had a pEC50 below 4.00.
For `CCOC(=O)c1cc(-c2ccccc2)sc1NC(=O)CN(C)C(=O)c1cccc(NS(C)(=O)=O)c1` [Compound 151] the value was below 4.00.
For `CCOC(=O)c1cc(-c2ccccc2)sc1NC(=O)COC1CCN(C(=O)c2cccc(NS(C)(=O)=O)c2)CC1` [Compound 208] the value was below 4.00; for `CCOC(=O)c1cc(-c2ccccc2)sc1NC(=O)COC(=O)c1cccc(NS(=O)(=O)c2ccn(C)n2)c1` [Compound 296], at least 4.60; for `CCOC(=O)c1cc(-c2ccccc2)sc1NC(=O)COC(=O)c1cccc(NS(=O)(=O)c2ccc(F)cc2)c1` [Compound 93], below 4.00.
As for `CCOC(=O)c1sc(-c2ccccc2)cc1NC(=O)COC(=O)c1cccc(NS(C)(=O)=O)c1` [Compound 354], the negative-log EC50 (pEC50) was below 4.00.
With `COC(=O)c1sc(-c2ccccc2)cc1NC(=O)CNC(=O)c1cccc(NS(C)(=O)=O)c1` [Compound 332], the pEC50 was below 4.00.
As for `CCOC(=O)c1cc(-c2ccccc2)sc1NC(=O)COC(=O)c1cccc(S(=O)(=O)NC(C)(C)C)c1` [Compound 379], the pEC50 is below 4.00.
For `CCOC(=O)c1cc(-c2cccc(F)c2)sc1NC(=O)COC(=O)c1cccc(NS(C)(=O)=O)c1` [Compound 116] the value was below 4.00.
For `CS(=O)(=O)Nc1cccc(C(=O)OCCNC(=O)c2cc(-c3ccccc3)sc2N)c1` [Compound 289] the value was below 4.00; for `CCOC(=O)c1cc(-c2ccccc2)sc1NC(=O)CNC(=O)c1ccc2ccn(S(C)(=O)=O)c2c1` [Compound 339], below 4.00; for `CCOC(=O)c1cc(-c2ccccc2)ncc1NC(=O)COC(=O)c1cccc(NS(C)(=O)=O)c1` [Compound 189], at least 4.60.

Values taken from patent publication US20260200890A1, “ADAR1 INHIBITORS AND METHODS OF USING THE SAME” (AVAMMUNE THERAPEUTICS INC., priority 2022, published 2026).
